Measurements as given in ChEMBL document CHEMBL3882724 (2013).
pIC50: −log10 of the molar value.

How the values were obtained:
CYP11B = target: T1, CYP11B (Rattus norvegicus, UniProt P15393+P30099); assay: Inhibition of Sprague-Dawley rat adrenal mitochondrial CYP11B assessed as decrease in conversion of 11-deoxycortisol to cortisol at 100 nM incubated for 60 mins by ELISA relative to control; format: protein assay; settings: adrenal mitochondria, probe 11-deoxycortisol
T1 sequence (P30099 whole entry): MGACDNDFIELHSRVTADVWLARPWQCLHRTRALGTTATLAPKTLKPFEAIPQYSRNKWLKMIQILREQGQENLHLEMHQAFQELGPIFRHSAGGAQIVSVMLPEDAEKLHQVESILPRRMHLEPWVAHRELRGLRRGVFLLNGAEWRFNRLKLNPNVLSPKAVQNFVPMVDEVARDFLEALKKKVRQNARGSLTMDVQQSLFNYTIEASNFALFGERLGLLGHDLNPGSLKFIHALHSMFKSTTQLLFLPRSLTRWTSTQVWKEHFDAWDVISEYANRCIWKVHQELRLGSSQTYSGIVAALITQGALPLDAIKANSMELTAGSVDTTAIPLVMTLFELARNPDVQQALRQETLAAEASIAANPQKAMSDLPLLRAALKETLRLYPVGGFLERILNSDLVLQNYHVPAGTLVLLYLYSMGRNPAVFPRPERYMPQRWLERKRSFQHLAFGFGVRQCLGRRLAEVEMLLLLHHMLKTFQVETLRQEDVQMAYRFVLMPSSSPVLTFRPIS
T1 sequence (P15393 whole entry): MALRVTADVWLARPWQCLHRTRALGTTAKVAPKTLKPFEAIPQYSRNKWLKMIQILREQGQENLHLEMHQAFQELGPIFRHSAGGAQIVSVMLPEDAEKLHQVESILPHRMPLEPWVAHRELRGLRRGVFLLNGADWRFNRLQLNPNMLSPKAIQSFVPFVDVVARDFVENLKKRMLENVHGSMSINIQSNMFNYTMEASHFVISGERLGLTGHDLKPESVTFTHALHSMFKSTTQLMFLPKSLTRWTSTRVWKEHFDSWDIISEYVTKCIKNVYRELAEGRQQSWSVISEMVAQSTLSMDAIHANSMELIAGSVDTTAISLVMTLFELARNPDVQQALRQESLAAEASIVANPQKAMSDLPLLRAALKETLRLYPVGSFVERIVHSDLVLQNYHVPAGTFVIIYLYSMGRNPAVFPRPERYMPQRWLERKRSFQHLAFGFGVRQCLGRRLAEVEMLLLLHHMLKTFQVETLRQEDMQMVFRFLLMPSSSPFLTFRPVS

[1] = target: T2, CYP21 (steroid 21-hydroxylase) (Homo sapiens, UniProt P08686); assay: Inhibition of human CYP21 transfected in HEK293 cells assessed as decrease in conversion of progesterone to 11-deoxycorticosterone preincubated for 5 hrs followed by progesterone addition measured after 20 hrs by ELISA; format: cell-based; design: concentration or dose not given beside the values; settings: HEK293 cells transfected with human CYP21, probe progesterone
T2 sequence (P08686 whole entry): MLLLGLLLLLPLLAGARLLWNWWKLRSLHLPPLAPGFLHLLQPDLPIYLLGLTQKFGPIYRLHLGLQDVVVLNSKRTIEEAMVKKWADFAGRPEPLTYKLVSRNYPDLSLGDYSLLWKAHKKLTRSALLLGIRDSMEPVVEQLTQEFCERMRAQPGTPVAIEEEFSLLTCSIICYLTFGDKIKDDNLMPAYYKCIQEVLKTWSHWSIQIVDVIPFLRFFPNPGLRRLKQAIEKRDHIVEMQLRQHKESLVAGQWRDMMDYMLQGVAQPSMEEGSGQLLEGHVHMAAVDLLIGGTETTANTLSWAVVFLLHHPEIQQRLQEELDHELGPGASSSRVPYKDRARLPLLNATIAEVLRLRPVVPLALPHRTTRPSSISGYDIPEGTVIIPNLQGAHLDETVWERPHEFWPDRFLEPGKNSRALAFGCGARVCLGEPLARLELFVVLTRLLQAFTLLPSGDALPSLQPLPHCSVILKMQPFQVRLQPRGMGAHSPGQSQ

[2] = target: T3, Steroid 17-alpha-hydroxylase/17,20 lyase (Homo sapiens, UniProt P05093); assay: Inhibition of CYP17 in human testicular microsomes using 17alpha-hydroxypregnenolone as substrate assessed as decrease in DHEA levels after 90 mins by ELISA; design: species or system Testis
T3 sequence (P05093 whole entry): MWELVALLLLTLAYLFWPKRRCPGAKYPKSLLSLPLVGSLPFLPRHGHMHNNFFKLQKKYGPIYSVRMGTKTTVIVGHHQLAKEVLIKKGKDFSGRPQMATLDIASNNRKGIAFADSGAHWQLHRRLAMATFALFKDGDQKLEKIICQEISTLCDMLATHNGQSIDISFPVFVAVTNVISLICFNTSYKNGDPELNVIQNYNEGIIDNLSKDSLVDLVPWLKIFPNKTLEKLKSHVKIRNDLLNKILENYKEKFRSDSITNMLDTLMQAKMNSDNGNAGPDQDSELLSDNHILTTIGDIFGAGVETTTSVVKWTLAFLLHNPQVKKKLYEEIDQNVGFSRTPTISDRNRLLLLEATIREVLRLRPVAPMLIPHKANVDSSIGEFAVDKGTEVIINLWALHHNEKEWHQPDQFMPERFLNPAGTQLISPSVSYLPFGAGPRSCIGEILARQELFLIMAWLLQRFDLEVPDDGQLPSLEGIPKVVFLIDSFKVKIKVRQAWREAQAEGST

[3] = target: T3, Steroid 17-alpha-hydroxylase/17,20 lyase; assay: Inhibition of CYP17 in human testicular microsomes using 17alpha-hydroxypregnenolone as substrate assessed as decrease in DHEA levels at 10 nM after 90 mins by ELISA relative to control; design: species or system Testis; settings: 1.5 h
[4] = Half life in rat liver microsomes at 1 uM by LC-MS/MS analysis
[5] = Half life in human liver microsomes at 1 uM by LC-MS/MS analysis

Row | inhibition at 1 h, 0.1 µM (CYP11B) [%] | inhibition at 20 h [1] [%] | pIC50 [2] | inhibition at 0.01 µM [3] [%] | half-life at 1 µM [4] [min] | half-life at 1 µM [5] [min] | Structure (SMILES)
1 | ≥ 50 |  |  | 1 to 50 |  |  | CC(=O)O[C@H]1CC[C@@]2(C)C(=CC[C@H]3C4=CC=C(c5cccnc5)[C@@]4(C)CC[C@@H]32)C1
2 | ≥ 50 |  |  | 50 to 80 |  |  | CN1C(=O)CC[C@@]2(C)C1=CC[C@@H]1[C@@H]2CC[C@]2(C)C(n3ccnc3)=CC[C@@H]12
3 | ≥ 50 | ≥ 50 | ≥ 7.96 |  |  |  | CN1C(=O)C[C@@]2(C)C1=CC[C@@H]1[C@@H]2CC[C@]2(C)C(c3cccnc3)=CC[C@@H]12
4 | < 32 |  | ≥ 7.96 | 50 to 80 | 1 to 10 | 1 to 10 | COc1cncc(C2=CC[C@H]3[C@@H]4CCC5=CC(=O)N(C)CC[C@]5(C)[C@H]4CC[C@]23C)c1
5 | < 32 | ≥ 50 | ≥ 7.96 |  |  | 1 to 50 | COc1cncc(C2=CC[C@H]3[C@@H]4CC=C5N(C)C(=O)C[C@]5(C)[C@H]4CC[C@]23C)c1
6 | ≥ 50 | 10 to 50 |  |  |  |  | C[C@]12CC[C@H](O)CC1=CC[C@@H]1[C@@H]2CC[C@]2(C)C(n3cncc3C#N)=CC[C@@H]12
7 | ≥ 50 | 10 to 50 | ≥ 7.96 |  |  |  | CCC(=O)N1CCC[C@@]2(C)C(CC[C@@H]3[C@@H]2CC[C@]2(C)C(c4cccnc4)=CC[C@@H]32)C1 (stereo partly drawn)
8 | < 32 | 10 to 50 | ≥ 7.96 |  |  |  | CCC(=O)N1CCC2CC[C@@H]3[C@H](CC[C@]4(C)C(c5cccnc5)=CC[C@@H]34)[C@@]2(C)CC1 (stereo partly drawn)
9 | < 32 | ≥ 50 | ≥ 7.96 |  |  |  | CCCC(=O)N1CCC2CC[C@@H]3[C@H](CC[C@]4(C)C(n5ccnc5)=CC[C@@H]34)[C@@]2(C)CC1 (stereo partly drawn)
10 | ≥ 50 |  |  | ≥ 80 |  | 1 to 50 | COc1cncc(C2=CC[C@H]3[C@@H]4CC=C5N(C)C(=O)CCC[C@]5(C)[C@H]4CC[C@]23C)c1
11 | ≥ 50 |  | ≥ 7.96 | ≥ 80 | 10 to 60 | 1 to 50 | CN1CC[C@@]2(C)C(=CC1=O)CC[C@@H]1[C@@H]2CC[C@]2(C)C(n3ccnc3)=CC[C@@H]12
12 | ≥ 50 |  | ≥ 7.96 | ≥ 80 |  | 1 to 50 | CN1C(=O)CCC[C@@]2(C)C1=CC[C@@H]1[C@@H]2CC[C@]2(C)C(c3cccnc3)=CC[C@@H]12
13 | ≥ 50 |  |  | 50 to 80 |  |  | Cc1cncc(C2=CC[C@H]3[C@@H]4CC=C5N(C)C(=O)CCC[C@]5(C)[C@H]4CC[C@]23C)c1
14 | < 32 |  |  | 1 to 50 |  |  | CN1CC=C2CC[C@@H]3[C@H](CC[C@]4(C)C(n5ccnc5)=CC[C@@H]34)[C@@]2(C)CC1
15 | < 32 |  | ≥ 7.96 | ≥ 80 | 10 to 60 | 10 to 60 | COc1cncc(C2CC[C@H]3[C@@H]4CCC5=CC(=O)NCC[C@]5(C)[C@H]4CC[C@]23C)c1 (stereo partly drawn)

Row | Structure (SMILES) | inhibition at 1 h, 0.1 µM (CYP11B) [%] | inhibition at 20 h [1] [%] | pIC50 [2] | inhibition at 0.01 µM [3] [%] | half-life at 1 µM [4] [min] | half-life at 1 µM [5] [min]
16 | COC(=O)N[C@@H]1CC[C@@]2(C)C(=CC[C@@H]3[C@@H]2CC[C@]2(C)C(n4ccnc4)=CC[C@@H]32)C1 | < 32 | ≥ 50 | ≥ 7.96 |  |  | 
17 | C[C@]12CCCCC1C(=O)C[C@@H]1[C@@H]2CC[C@]2(C)C(n3ccnc3)=CC[C@@H]12 (stereo partly drawn) | < 32 |  | ≥ 7.96 | ≥ 80 |  | 
18 | C[C@]12CC[C@@H](NC(=O)C3CC3)CC1=CC[C@@H]1[C@@H]2CC[C@]2(C)C(n3ccnc3)=CC[C@@H]12 | ≥ 50 | ≥ 50 | ≥ 7.96 |  |  | 1 to 50
